Consider nine compounds from article PMC9531272, “Xanthine oxidase inhibitory study of eight structurally diverse phenolic compounds” (Frontiers in Nutrition, 2022).

SMILES strings stand for the structures. Read-outs that look alike come from different tables or passages of the source.

Assay [1] addresses T1, Xanthine oxidase (XO) (Bos taurus, UniProt P80457).
T1 construct: purchased Sigma-Aldrich (Shanghai, P. R. China)
As to the kind of experiment: Determination of inhibition type (Line-weaver Burk plot). The assay is classed as biochemical. As to conditions: Line-weaver Burk plot analysis toward XO.

The target of assay [2] is T1, Xanthine oxidase (XO). As to the kind of experiment: XO inhibitory activity of phenolic compounds (absorbance at 292 nm). The class given is biochemical. Particulars: XO 0.1 U/ml, 37°C, 15 min preincubation; mean ± SD.
The next assay relates to XO. Particulars: cited from earlier work; for IC50: read-out: IC50 against XO.

T1 sequence (P80457 whole entry): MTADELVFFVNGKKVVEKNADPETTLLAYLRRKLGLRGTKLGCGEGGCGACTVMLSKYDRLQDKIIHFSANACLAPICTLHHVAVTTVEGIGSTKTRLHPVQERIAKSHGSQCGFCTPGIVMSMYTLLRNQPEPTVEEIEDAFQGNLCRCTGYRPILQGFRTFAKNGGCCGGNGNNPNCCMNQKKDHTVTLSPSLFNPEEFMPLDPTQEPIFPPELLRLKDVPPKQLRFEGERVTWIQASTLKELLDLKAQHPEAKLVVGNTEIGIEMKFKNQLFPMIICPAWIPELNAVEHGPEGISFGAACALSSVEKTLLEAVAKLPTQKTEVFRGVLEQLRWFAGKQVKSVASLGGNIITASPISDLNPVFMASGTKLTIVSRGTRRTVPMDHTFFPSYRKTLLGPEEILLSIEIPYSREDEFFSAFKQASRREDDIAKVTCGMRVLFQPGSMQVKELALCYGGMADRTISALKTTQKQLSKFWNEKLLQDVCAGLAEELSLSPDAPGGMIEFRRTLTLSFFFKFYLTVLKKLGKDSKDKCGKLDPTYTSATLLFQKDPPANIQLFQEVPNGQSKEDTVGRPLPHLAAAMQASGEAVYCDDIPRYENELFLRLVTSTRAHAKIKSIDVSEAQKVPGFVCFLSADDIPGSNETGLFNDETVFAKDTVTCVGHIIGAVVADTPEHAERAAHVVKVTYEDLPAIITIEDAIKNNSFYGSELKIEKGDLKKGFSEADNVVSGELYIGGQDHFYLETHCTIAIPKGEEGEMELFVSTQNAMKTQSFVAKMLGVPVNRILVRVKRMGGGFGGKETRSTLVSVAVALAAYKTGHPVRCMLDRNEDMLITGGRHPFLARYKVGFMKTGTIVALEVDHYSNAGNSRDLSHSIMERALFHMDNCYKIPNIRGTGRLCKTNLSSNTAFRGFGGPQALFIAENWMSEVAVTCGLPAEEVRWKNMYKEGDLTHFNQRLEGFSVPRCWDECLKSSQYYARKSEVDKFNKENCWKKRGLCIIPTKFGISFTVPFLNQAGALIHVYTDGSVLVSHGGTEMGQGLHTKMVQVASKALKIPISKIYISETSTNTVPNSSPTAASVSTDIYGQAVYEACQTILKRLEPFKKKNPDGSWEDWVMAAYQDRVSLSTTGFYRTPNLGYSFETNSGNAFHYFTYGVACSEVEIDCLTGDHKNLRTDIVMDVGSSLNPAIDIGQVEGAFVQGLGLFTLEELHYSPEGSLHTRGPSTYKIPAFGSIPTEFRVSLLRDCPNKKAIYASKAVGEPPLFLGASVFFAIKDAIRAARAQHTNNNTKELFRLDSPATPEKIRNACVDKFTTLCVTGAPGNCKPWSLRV

In general, IC50 refers to the point on the concentration scale where inhibition reaches its midpoint. Consider `O=C(/C=C/c1ccc(O)c(O)c1)O[C@H]1[C@H](O)C[C@](O)(C(=O)O)C[C@H]1O` [C6, 4-O-caffeoylquinic acid], for which, on Xanthine oxidase (XO) [1], the Inhibition type result was “Competitive”. On Xanthine oxidase (XO) [2], this compound displayed an IC50 of 70.2 ± 2.25 µM.
On to `O=C(/C=C/c1ccc(O)c(O)c1)O[C@@H]1CC(O)(C(=O)O)C[C@@H](OC(=O)/C=C/c2ccc(O)c(O)c2)C1O` (some centres unmarked) [C4, 3,5-O-dicaffeoylquinic acid], for which the Inhibition type result at Xanthine oxidase (XO) [1] is “Competitive”. Besides, the IC50 against Xanthine oxidase (XO) [2] stood at 28.9 ± 1.02 µM.
As to `Oc1ncnc2[nH]ncc12` [Allopurinol, allopurinol, reference compound], the IC50 in the assay on XO (ref Wang et al. ([28])) is 6.96 µM.
For the compound `O=C(/C=C/c1ccc(O)c(O)c1)O[C@@H]1C[C@](O)(C(=O)O)C[C@@H](O)[C@H]1O` [C7, 3-O-caffeoylquinic acid], on Xanthine oxidase (XO) [1], the Inhibition type entry is “Competitive”. For the same compound, at Xanthine oxidase (XO) [2], the IC50 is 80.9 ± 3.06 µM.
Turning to `O=C(/C=C/c1ccc(O)c(O)c1)O[C@@H]1[C@H](O)C[C@@](O)(C(=O)O)C[C@H]1OC(=O)/C=C/c1ccc(O)c(O)c1` [C3, 4,5-O-dicaffeoylquinic acid], the Inhibition type result on Xanthine oxidase (XO) [1] is “Mixed”. At Xanthine oxidase (XO) [2], this compound showed an IC50 of 26.7 ± 1.2 µM.
Take `C[C@@H]1O[C@@H](Oc2c(-c3ccc(O)c(O)c3)oc3cc(O)cc(O)c3c2=O)[C@H](O)[C@H](O)[C@H]1O` [C2, quercetin-3-rhamnoside]: the Inhibition type result at Xanthine oxidase (XO) [1] was “Competitive”. The same compound displayed an IC50 on Xanthine oxidase (XO) [2] of 12.1 ± 0.65 µM.
For the compound `O=C(O)/C=C/c1ccc(O)c(O)c1` [C8, caffeic acid], the IC50 was 95.6 ± 3.28 µM on Xanthine oxidase (XO) [2]; greater than 50 µM in the assay on XO (ref Chan et al. ([31])); 85.3 µM in the assay with XO (ref Nguyen et al. ([33])); 53.5 µM with XO (ref Wang et al. ([28])); 65.6 ± 2.71 µM in the assay with XO (ref Wang et al. ([30])). The XO inhibition in the assay on XO (at 125 μM concentration, ref Song et al. ([29])) is 5.74 ± 2.64%.
Take `O=c1c(O)c(-c2ccc(O)c(O)c2)oc2cc(O)cc(O)c12` [C1, quercetin]: at Xanthine oxidase (XO) [1], the Inhibition type result is recorded as “Mixed”.
With `O=C(/C=C/c1ccc(O)c(O)c1)O[C@H]1[C@H](O)C[C@](O)(C(=O)O)C[C@H]1OC(=O)/C=C/c1ccc(O)c(O)c1` [C5, 3,4-O-di-caffeoylquinic acid], the Inhibition type entry on Xanthine oxidase (XO) [1] is given as “Competitive”. The compound also showed an IC50 on Xanthine oxidase (XO) [2] of 44.6 ± 1.65 µM.
